Source: PubChem BioAssay (NCI)
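48-hour exposure; five concentrations; linearly interpolated endpoints. TGI marks complete inhibition of growth.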 Where a SMILES comes first, the peptide text is derived from it. [ ]: non-standard residue; d: D form. The star is where a group is joined. ξ: configuration not given here. ξF = NC(Cc1ccccc1)C(=O)O; Cbz = O=C(OCc1ccccc1)*; Aib = CC(C)(N)C(=O)O; NHNH2 = NN*

Key:
Assay in all cases: inhibition of tumour cell growth, NCI panel, 48 h
SK-MEL-28 melanoma = system: SK-MEL-28 melanoma
MDA-N = system: MDA-N
SW-620 colon = system: SW-620 colon
MDA-MB-435 = system: MDA-MB-435
LOX IMVI melanoma = system: LOX IMVI melanoma
NCI-H522 lung = system: NCI-H522 lung
OVCAR-4 ovarian = system: OVCAR-4 ovarian
NCI-H23 lung = system: NCI-H23 lung
RXF 393 renal = system: RXF 393 renal
MALME-3M melanoma = system: MALME-3M melanoma
SF-295 CNS = system: SF-295 CNS
UO-31 renal = system: UO-31 renal
SK-MEL-2 melanoma = system: SK-MEL-2 melanoma
HT29 colon = system: HT29 colon
DU-145 prostate = system: DU-145 prostate
NCI-H226 lung = system: NCI-H226 lung
U251 CNS = system: U251 CNS
CAKI-1 renal = system: CAKI-1 renal
NCI-H460 lung = system: NCI-H460 lung
KM12 colon = system: KM12 colon

Structure (SMILES)	TGI (SK-MEL-28 melanoma) [µM]	TGI (MDA-N) [µM]	TGI (SW-620 colon) [µM]	TGI (MDA-MB-435) [µM]	TGI (LOX IMVI melanoma) [µM]	TGI (NCI-H522 lung) [µM]	TGI (OVCAR-4 ovarian) [µM]	TGI (NCI-H23 lung) [µM]	TGI (RXF 393 renal) [µM]	TGI (MALME-3M melanoma) [µM]	TGI (SF-295 CNS) [µM]	TGI (UO-31 renal) [µM]	TGI (SK-MEL-2 melanoma) [µM]	TGI (HT29 colon) [µM]	TGI (DU-145 prostate) [µM]	TGI (NCI-H226 lung) [µM]	TGI (U251 CNS) [µM]	TGI (CAKI-1 renal) [µM]	TGI (NCI-H460 lung) [µM]	TGI (KM12 colon) [µM]
CCCCCCCCCCCCCCCCCc1cccc(OCOCCOC)c1C(=O)O	38.2	38.8	44.3	40.9	61.8	30	34.8	30.1	37.7	22.2	35.5	31.7	39.2	35.7	33.2	32.3	41.6	35.1	41	34.1
COc1ccccc1NC(=S)NN=C(C)c1cccc(C(C)=NNC(=S)Nc2ccccc2OC)n1	> 100	> 100	> 100	> 100	> 100	97.3	74.3	> 100	47.6	40.6	> 100	> 100	> 100	> 100	> 100	> 100	> 100	> 100	> 100	> 100
O=P12N(CCN1c1ccccc1)CCN2c1ccccc1	> 100	> 100	> 100	> 100	> 100	> 100	> 100	> 100	> 100	> 100	> 100	> 100	> 100	> 100	> 100	> 100	> 100	> 100	> 100	> 100
COc1ccc(N=N/C(=N/NC(=O)c2ccc(C)cc2)c2ccc(N(CCC#N)CCC#N)cc2OC)cc1	> 100	> 100	> 100	> 100	> 100	> 100	> 100	> 100	> 100	> 100	> 100	> 100	> 100	> 100	> 100	> 100	> 100	> 100	> 100	> 100
O=c1ccn(CC2(CO)CCC2)c(=O)[nH]1	> 100	> 100	> 100	> 100	> 100	> 100	> 100	> 100	> 100	> 100	> 100	> 100	> 100	> 100	> 100	> 100	> 100	> 100	> 100	> 100
COC(=O)C1CCC(=O)N1CN(C(C)=O)c1ccccc1Cl (configuration not stated)	> 100	> 100	> 100	> 100	> 100	> 100	> 100	> 100	> 100	> 100	> 100	> 100	> 100	> 100	> 100	> 100	> 100	> 100	> 100	> 100
Cc1cc(S(=O)(=O)Nc2n[nH]c(Nc3ccc(Cl)cc3)n2)c(S)cc1Cl	> 100	> 100	> 100	> 100	> 100	> 100	> 100	> 100	> 100	> 100	> 100	> 100	> 100	> 100	> 100	> 100	> 100	> 100	> 100	> 100
C=C=C(CC1CCCCC1=O)S(=O)(=O)c1ccccc1 (configuration not stated)	> 10	> 10	> 9.53	> 10	> 10	6.71	> 10	> 10	> 10	> 10	> 10	> 10	> 10	> 10	> 10	> 10	> 10	> 10	> 10	
CN(C)CCCN1C(=S)N(CCCN(C)C)c2c3ccccc3nc3c([N+](=O)[O-])ccc1c23	29.9	21.4	17.4	23.7	17.9	10.5	27.9	23.7	17.8	6.69	23.7	27.9	34.8	12	19.8	24.1	20.7	19.7	18	16.1
CC(C)(NC(=O)OCc1ccccc1)C(=O)NC(Cc1ccccc1)C(=O)NN (configuration not stated) (Cbz-[Aib]-[ξF]-NHNH2)	> 100	> 100	> 100	> 100	> 100	> 100	> 100	> 100	> 100	> 100	> 100	> 100	> 100	> 100	> 100	> 100	> 100	> 100	> 100	> 100
COc1cc(OC)c2c(c1)OC(c1ccccc1)CC2=O (configuration not stated)	> 10	> 10	> 10	> 10	> 10	> 10	> 10	> 10	> 10	> 10	> 10	> 10	> 10	> 10	> 10	> 10	> 10	> 10	> 10	> 10
N=C1OC(CN2CCN(c3ccccc3)CC2)CN1C(=S)Nc1ccccc1 (configuration not stated)	> 100	> 100	> 100	> 100	72.7	> 100	> 100	> 100	> 100	> 100	> 100	> 100	> 100	> 100	> 100	> 100	> 100	> 100	> 100	> 100
C=CCN(c1cc(OCc2ccccc2)c2[nH]cc(C)c2c1)S(C)(=O)=O	> 100	> 100	> 100	> 100	> 100	> 100	> 100	> 100	71.4	88.7	> 100	> 100	> 100	> 100	> 100	> 100	> 100	> 100	> 100	> 100
CC(C)C1C(=O)N(c2c(F)c(F)c(F)c(F)c2F)C(=S)N1CCS(=O)c1ccccc1 (configuration not stated)	30.8	32.4	35.5	32.3	28.2	12.6	31.1	33.3	35.4	30.2	33.1	28.6	32.8	27.8	47.6	38.5	28	9.86	40.1	32.6
CC[C@H](C)[C@H]1NC(=O)[C@@H](NC(=O)[C@@H](CC(C)C)N(C)C(=O)C2CCCN2C(=O)[C@H](C)O)[C@@H](C)OC(=O)[C@H](Cc2ccc(OC)cc2)N(C)C(=O)[C@@H]2CCCN2C(=O)[C@H](CCCCNC(=O)OCc2ccccc2)NC(=O)[C@H](C)C(=O)[C@H](C(C)C)OC(=O)C[C@@H]1O (some centres not stated)	> 25	> 25	> 25	> 25	> 25	> 25	> 25	> 25	> 25	20.1	> 25	> 25	10.1	16.4	> 25	> 25	17.6	> 25	> 25	19.4
COc1ccc(N=NC(=O)NC(Cc2ccccc2)C(=O)O)cc1 (configuration not stated)	> 100	> 100	> 100	> 100	> 100	> 100	> 100	> 100	> 100	> 100	> 100	> 100	> 100	> 100	> 100	> 100	> 100	> 100	> 100	> 100
c1ccc2c(Cc3[nH]c4ccccc4c3Cc3c[nH]c4ccccc34)c[nH]c2c1	23.9	5.47	5.59	5.16	5.57	3.76	13.2	7.49	5.8	6.3	16.3	11.1	7.71	6.07	4.48	24.5	9.78	10.3	4.17	4.84
O=C(NC1(c2cc3ccccc3s2)CCCCC1)C1CCC1	> 100	> 100	> 100	> 100	> 100	> 100	> 100	> 100	> 100	> 100	> 100	> 100	> 100	> 100	> 100	> 100	> 100	> 100	> 100	> 100
CNNC1=NS(=O)(=O)c2cc(C#N)c(Cl)cc2S1	> 10	> 10	> 10	> 10	> 10	> 10	> 10	> 10	> 10	> 10	> 10	3.38	> 10	> 10	> 10	> 10	> 10	> 10	> 10	> 10
N#Cc1nc(CCN2C(=O)c3ccccc3C2=O)oc1N	> 100	> 100	> 100	> 100	> 100	> 100	> 100	> 100	> 100	> 100	> 100	> 100	> 100	> 100	> 100	> 100	> 100	> 100	> 100	> 100
O=c1cc(N=Nc2ccc(Br)cc2)[nH]c(=S)[nH]1	53.2	> 100	64.5	38.1	29.4	38	34.3	> 100	45.4	30.8	> 100	> 100	33.3	34.2	> 100	> 100	> 100	23	> 100	> 100
CC(C)(O)/C=C\P(=O)(O)O	> 100	> 100	> 100	> 100	> 100	> 100	> 100	> 100	> 100	> 100	> 100		> 100	> 100	> 100	> 100	> 100	> 100	> 100	> 100
COC(=O)/C(C#N)=C(\Nc1ccccc1)N1CCOCC1	> 100	> 100	> 100	> 100	> 100	> 100	> 100	> 100	> 100	> 100	> 100	> 100	> 100	> 100	> 100	> 100	> 100	> 100	> 100	
